“Also recorded” adds a separate entry of the source.
Experiments:
[1] = tested on: TIA1, G3BP1 and TDP43 granules in E12.5 motor neurons; test: Stress granule protein granules in neurites of arsenite-treated motor neurons; format: cell-based, mouse; conditions: sodium arsenite 0.5 mM 30 minutes, then 10 μM peptide; for number of flag-TDP43 granules greater than 2 μm^2 per 100 μm of neurite: WT and ALS mutant flag-TDP43; for number of large TIA1-GFP granules (>2 μm^2) in neurites: WT and mutant TIA1-GFP
From the text: To further evaluate whether mutant TIA1 and TDP43 protein aggregates are affected by G3BP1 190-208 peptide, the inventors expressed the mutant proteins in embryonic motor neurons and assessed granules formed in neurites with or without arsenite treatment either in the presence of G3BP1 190-208 or control 168-189 peptide.
FIG. 6: Cell permeable G3BP1 190-208 peptide decreases granules formed by endogenous TIA1 and TDP43 and exogenous TDP43 and TIA1 mutants in motor neurons after sodium arsenite exposure. (A) Embryonic motor neurons isolated from E12.5 mouse embryos were exposed to sodium arsenite (0.5 mM) for 30 minutes and then treated with 10 μM 190- 208 or […] peptide. After fixation endogenous TIA1 was visualized by immunostaining. The number of TIA1 granules greater than 2 μm^2 per 100 μm of neurite were measured. (B) E12.5 motor neurons were treated as described in (A) and immunostaining was used to detect endogenous G3BP1 protein. The number of G3BP1 granules greater than 2 μm^2 per 100 μm of neurite were measured. […] (C) E12.5 motor neurons expressing TIA1-GFT or ALS/FTD-associated mutants TIA1-A381T, TIA1-E384K were treated with sodium arsenite (0.5 mM) for 30 minutes followed by treatment with either 10 μM 190-208 G3BP1 or 168-189 control peptide. The number of cells containing TIA1-GFP puncta were measured 2 μm^2 per 100 μm of neurite and results are reported relative to non-treated controls. The number of TIA1-GFP granules in neurites decreased for WT and ALS/FTD mutants after treatment with 190-208 G3BP1 as compared to the 168-189 control peptide treated cells. (I)) E12.5 motor neurons expressing flag-tagged wildtype TDP43 or ALS-associated mutants TDP43-M337V and TDP43-Q331.K were treated with sodium arsenite (0.5 mM) for 30 minutes followed by treatment with either 10 μM 190-208 G3BP1 or 168189 control peptide. Flag-TDP43 was detected by immunostaining using the anti-flag-antibody. The number of flag-TDP43 granules greater than 2 μm^2 were measured per 100 μm of neurite and the results are reported relative to non-treated controls. The number of Flag-TDP43 granules in neurites were decreased after treatment with 190-208 G3BP1 peptide as compared to the 168-189 control peptide in both WT and ALS/FTD mutants expressing cells. ([…] over 3 cultures; by two-way ANOVA with Tukey HSD post-hoc),

[2] = tested on: DRG neurons; test: Axon growth in dissociated DRG cultures; format: cell-based, rat
Protocol: Cell culture. For primary neuronal cultures, L4-5 DRG were harvested in Hybernate-A medium (BrainBits) and then dissociated as described. After centrifugation and washing in DMEM/F12 (Life Technologies), cells were resuspended in DMEM/F12, 1×N1 supplement (Sigma), 10% fetal bovine serum (Hyclone), and 10 μM cytosine arabinoside (Sigma). Dissociated DRGs were plated immediately on laminin/poly-L-lysine-coated coverslips or transfected (see below) and then plated on coated coverslips.
[…] Neurite outgrowth was assessed 24 h after addition of peptides. For the cortical cultures, 10 μM peptide was applied to the axonal compartment at 3 d in vitro (DIV) and axonal growth was assessed at 6 DIV. For iMotor neurons, 20 μM peptides were immediately added and neurite growth was assessed 24 h later.
For neurite outgrowth, images from 60 h DRG cultures were analyzed for neurite outgrowth using WIS-Neuromath. Axon morphology was visualized using GFP and/or NF immunofluorescence as described. Differentiated hiPSC neuron image acquisition and neurite length quantification was performed using Arrayscan XTI (Thermo Fisher).

[3] = tested on: axons of E18 cortical neurons; test: Aβ oligomer-mediated axon degeneration in microfluidic cultures; format: cell-based; conditions: axons only exposed: Aβ oligomer 1 μM for 16 hours ± 190-208 G3BP1 peptide 1 μM
Protocol: To test whether the cell permeable G3BP1 190-208 peptide protects against this early axonal degeneration, the current disclosure exposed only the axons of E18 cortical neuron cultures to Aβ peptide using microfluidic cultures (FIG. 16A). […] Thus, the cell permeable G3BP1 190-208 peptide protects axons from the neurotoxic effects of Aβ oligomers through axon intrinsic mechanisms.
E18 cortical neurons were plated into the cell-body compartment (blue); after 7 DIV axons from these neurons extend through the microchannels into the axon compartment (pink). […] Yellow line indicates the exit of the axons from the microchannels.

[4] = 10 μM Tat-fused peptide added to DRG cultures immediately after plating

Substance: YGNKKNNNQNNN-VVEPEPEPEPEPEPEPVSE [G3BP1 190-208 peptide]
- number of flag-TDP43 granules greater than 2 μm^2 per 100 μm of neurite [1]: reversed
- number of flag-TDP43 granules greater than 2 μm^2 per 100 μm of neurite ([1]; listed as 190-208 G3BP1 peptide): decreased
- number of large TIA1-GFP granules (>2 μm^2) in neurites [1]: decrease in the number of large granules
- number of large TIA1-GFP granules (>2 μm^2) in neurites ([1]; listed as 190-208 G3BP1): decreased
- number of endogenous TIA1 and G3BP1 granules greater than 2 μm^2 per 100 μm of neurite [1]: reverses the increase number of these larger granules
- number of endogenous TIA1 and G3BP1 granules greater than 2 μm^2 per 100 μm of neurite ([1]; listed as 190-208): significantly decreased levels of TIA1 and G3BP1 granules
- axon length [2, 4]: increased axon length
- number of neurites per neuron [2, 4]: increased the number of neurites per neuron
- axon length ([2]; delayed application (peptide added at 12 h, assessed at 36 h), naive and preinjured DRG neurons): significantly increased axon length
- axon degeneration [3]: near completely prevented this axon degeneration; also recorded: rescues amyloid beta oligomer-mediated axonal degeneration

— patent US20230190887A1, “TARGETING G3BP AGGREGATION TO PREVENT NEURODEGENERATION” (priority 2019, published 2023)
